# Laboratory results reported in patent US20260364214A1, “MULTIVALENT FIBROBLAST ACTIVATION PROTEIN LIGANDS FOR TARGETED DELIVERY APPLICATIONS” (Philochem AG, priority 2022, published 2026).
# What was measured:
# [1] = Tolerability (body weight change) of 177Lu conjugates; type: in vivo, mouse (athymic Balb/c AnNRj-Foxn1); conditions: single administration, 250 nmol/kg, 250 MBq/kg
# Procedure: (§1) The anti-cancer efficacy of ^177Lu-ESV6, ^177Lu-Bi-ESV6 and ^177Lu-Tri-ESV6 was assessed in athymic Balb/c AnNRj-Foxn1 mice bearing SK-RC-52.hFAP tumor in the right flank. ^177Lu-ESV6, ^177Lu-Bi-ESV6 or ^177Lu-Tri-ESV6 were intravenously administered at a dose of 250 nmol/kg, 250 MBq/kg (single administration on day 9 after tumor implantation). Therapy experiments started when the average volume of established tumors had reached 100-150 mm^3. Body weight of the animals and tumor volume were daily measured and recorded. Tumor dimensions were measured with an electronic caliper and tumor volume was calculated with the formula (long side, mm)×(short side, mm)×(short side, mm)×0.5. Animals were euthanized when one or more termination criterium indicated by the experimental license was reached. Prism 7 software (GraphPad Software) was used for data analysis.
# SK-RC-52.hFAP tumors [2] = assay: Therapeutic efficacy in SK-RC-52.hFAP tumor bearing mice; type: in vivo, mouse (athymic Balb/c AnNRj-Foxn1); conditions: single administration, 250 nmol/kg, 250 MBq/kg
# Procedure: SK-RC-52.hFAP were grown to 80% confluence in RPMI-1640 with 10% fetal bovine serum (FBS) and 1% antibiotic-antimycotic and detached with Trypsin-EDTA (ethylenediaminetetraacetic acid) 0.05%. Tumor cells were resuspended in Hanks' Balanced Salt Solution medium. Aliquots of 5 million cells (100 μL of suspension) were injected subcutaneously in the right flank of female athymic Balb/c AnNRj-Foxn1 mice (6 to 8 wk of age).
# Prior to the therapy studies, precursors (25 nmol) were dissolved in 25 μL of milliQ water, then sodium acetate buffer (75 μL, 1 M in water) and 25, 75 or 150 MBq of ^177Lu solution were added. The mixture was heated at 90 °C for 1 minutes followed by dilution with 400 μL of PBS to afford a final volume of 500 μL (5 doses of 100 μL each). […]
# as §1, with “Therapy experiments started when the average volume of established tumors had reached 100-150 mm^3.” left out, “Animals were euthanized when one or more termination criterium indicated by the experimental license was reached. Prism 7 software (GraphPad Software) was used for data analysis.” left out
# SK-RC-52.hFAP cells = assay: Cell efflux assay with 177Lu-labeled ligands; type: cell-based
# Procedure: SK-RC-52.hFAP cells, were cultured using RPMI medium supplemented with 10% Fetal Bovine Serum (FBS) and 1% Antibiotic-Antimytotic. Cells were seeded in 24-well plates (200'000 cells/well, 0.5 mL/well) and incubated overnight at 37 °C, 5% CO2. Then, media was removed, cells were washed with PBS (2×0.5 mL) and incubated with a solution of ^177Lu-ESV6, ^177Lu-Bi-ESV6, ^177Lu-Tri-ESV6 or ^177Lu-FAP-2286 (10 KBq, […], 0.5 mL). After 1 h, media was removed, and cells were washed with PBS (2×0.5 mL) and incubated with fresh RPMI medium without supplements. Fractions of the culture media were measured with a gamma counter (Packard Cobra) at different time-points. Percentage of compound bound was calculated as fraction of the total activity and corrected for the ^177Lu decay, as shown in FIG. 3.
# SK-RC-52.hFAP tumors [3] = assay: Therapeutic efficacy in dose escalation and in combination with L19-IL2; type: in vivo, mouse (athymic Balb/c AnNRj-Foxn1); conditions: 5, 15 or 30 MBq/mouse on day 7
# Procedure: Prior to the therapy studies, precursors (25 nmol) were dissolved in 25 μL of milliQ water, then sodium acetate buffer (75 μL, 1 M in water) and 25, 75 or 150 MBq of ^177Lu solution were added. The mixture was heated at 90 °C for 1 minutes followed by dilution with 400 μL of PBS to afford a final volume of 500 μL (5 doses of 100 μL each). Quality control of radiosynthesis was performed using radio-HPLC.
# The anti-cancer efficacy of L19-IL2 as single agent (3×0.05 mg/mouse), ^177Lu-Tri-ESV6 as single agent at different doses (5 MBq/mouse, 15 MBq/mouse, 30 MBq/mouse), ^177Lu-Tri-ESV6+L19-IL2 combination (5 MBq/mouse of ^177Lu-Tri-ESV6 followed by three injections of L19-IL2 at 0.05 mg/mouse) or saline was assessed in athymic Balb/c AnNRj-Foxn1 mice bearing SK-RC-52.hFAP tumor in the right flank. Therapy experiments started when the average volume of established tumors had reached 100-150 mm^3. Body weight of the animals and tumor volume were daily measured and recorded. Tumor dimensions were measured with an electronic caliper and tumor volume was calculated with the formula (long side, mm)×(short side, mm)×(short side, mm)×0.5. Animals were euthanized when one or more termination criterium indicated by the experimental license was reached. Prism 7 software (GraphPad Software) was used for data analysis. […]
# SK-RC-52.hFAP tumors [4] = assay: Dose escalation / dose optimization for radiotherapeutic applications; type: in vivo, mouse (female athymic Balb/c AnNRj-Foxn1); conditions: 24 h
# Procedure: Prior to the dose optimization study for radiotherapeutic applications, precursors (0.24 to 180 nmol) were dissolved in milliQ water and diluted with sodium acetate (1 M in water, pH=4.5). ^177Lu solution (4 MBq) were added and the mixture was heated at 90 °C for 10 minutes, followed by dilution with PBS to achieve final volume of 400 μL (4 doses of 100 μL each).
# Female athymic Balb/c AnNRj-Foxn1 mice bearing subcutis SK-RC-52.hFAP tumors were injected intravenously with eight different doses of ^177Lu-Tri-ESV6-DOTAGA ranging from 3 nmol/kg to 2250 nmol/kg. The mice were sacrificed after 24 h and tumor and healthy organs were harvested and measured with a gamma counter. Since the best tumor to organ ratios are obtained with high doses ranging between 90 and 250 nmol/kg, we anticipate that the ideal dose in human patients for radiotherapeutic applications will be between 1 and 3 milligram per patient. e) Therapeutic efficacy evaluation in tumor bearing mice in dose escalation and in combination with L19-IL2
compound,measurement,setting,value
"N#C[C@@H]1CC(F)(F)CN1C(=O)CNC(=O)c1ccnc2c(NC(=O)CCC(=O)NCCNC(=O)CCC(C(=O)O)N3CCN(CC(=O)[O-])CCN(CC(=O)[O-])CCN(CC(=O)[O-])CC3)cccc12.[177Lu+3] (some centres unmarked) [^177Lu-ESV6-DOTAGA, reference compound]","tolerability (body weight change), in words",[1],very well tolerated
"N#C[C@@H]1CC(F)(F)CN1C(=O)CNC(=O)c1ccnc2c(NC(=O)CCC(=O)NCCNC(=O)CCOCC(COCCC(=O)NCCNC(=O)CCC(=O)Nc3cccc4c(C(=O)NCC(=O)N5CC(F)(F)C[C@H]5C#N)ccnc34)(COCCC(=O)NCCNC(=O)CCC(=O)Nc3cccc4c(C(=O)NCC(=O)N5CC(F)(F)C[C@H]5C#N)ccnc34)NC(=O)CCC(C(=O)O)N3CCN(CC(=O)O)CCN(CC(=O)O)CCN(CC(=O)O)CC3)cccc12 (stereo partly drawn) [Tri-ESV6-DOTAGA, 2,2′,2″-(10-(19-carboxy-1-((4-((2-((S)-2-cyano-4,4-difluoropyrrolidin-1-yl)-2-oxoethyl)carbamoyl)quinolin-8-yl)amino)-14,14-bis((3-((2-(4-((4-((2-((S)-2-cyano-4,4-difluoropyrrolidin-1-yl)-2-oxoethyl)carbamoyl)quinolin-8-yl)amino)-4-oxobutanamido)ethyl)amino)-3-oxopropoxy)methyl)-1,4,9,16-tetraoxo-12-oxa-5,8,15-triazanonadecan-19-yl)-1,4,7,10-tetraazacyclododecane-1,4,7-triyl)triacetic acid]","therapeutic activity (tumor volume), in words",SK-RC-52.hFAP tumors [2],remarkable therapeutic activity
N#CC1CC(F)(F)CN1C(=O)CNC(=O)c1ccnc2c(NC(=O)CCC(=O)NCCNC(=O)CCOCC(COCCC(=O)NCCNC(=O)CCC(=O)Nc3cccc4c(C(=O)NCC(=O)N5CC(F)(F)CC5C#N)ccnc34)(COCCC(=O)NCCNC(=O)CCC(=O)Nc3cccc4c(C(=O)NCC(=O)N5CC(F)(F)CC5C#N)ccnc34)NC(=O)CCC(C(=O)O)N3CCN(CC(=O)[O-])CCN(CC(=O)[O-])CCN(CC(=O)[O-])CC3)cccc12.[177Lu+3] (centres unmarked) [^177Lu-Tri-ESV6-DOTAGA],"residence time / efflux, in words",SK-RC-52.hFAP cells,"longer residence time in FAP-positive tumor cells, followed by ^177Lu-Bi-ESV6, ^177Lu-ESV6 and ^177Lu-FAP2286"
same,"therapeutic activity, in words",SK-RC-52.hFAP tumors [3],dose-dependent therapeutic activity
same,"% ID/g in tumor, in words",SK-RC-52.hFAP tumors [4]; highest doses (>90 nmol/kg),drops
same,"uptake in healthy organs, in words",SK-RC-52.hFAP tumors [4]; lowest doses (<10 nmol/kg),partially uptaken in healthy organs
same,"tolerability (body weight change), in words",[1],very well tolerated
"N#CC1CC(F)(F)CN1C(=O)CNC(=O)c1ccnc2c(NC(=O)CCC(=O)NCCCCC(NC(=O)CCC(=O)Nc3cccc4c(C(=O)NCC(=O)N5CC(F)(F)CC5C#N)ccnc34)C(=O)NCCNC(=O)CCC(C(=O)O)N3CCN(CC(=O)[O-])CCN(CC(=O)[O-])CCN(CC(=O)[O-])CC3)cccc12.[177Lu+3] (centres unmarked) [^177Lu-Bi-ESV6-DOTAGA, reference compound]","tolerability (body weight change), in words",[1],very well tolerated
